Activity calls are given as the source filed them. How the calls were made is not given here.
Tested on: rodent carcinogenicity bioassays, tumor incidence
Assay: CCRIS carcinogenicity studies
In short: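 Archive of carcinogenicity, mutagenicity, tumor promotion and tumor inhibition results drawn from journals, NCI reports and other sources, expert-reviewed; covers 1985-2011 and is no longer updated.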

Measured: carcinogen call

O=NN1CCCCCC1
active: Species: MOUSE, Strain/Sex: NZB/FEMALE, Route: ORAL, Dose: 0, 1.56 NMOL IN DRINKING WATER 5D/WK FOR 8 WK FOR A TOTAL DOSE OF 0, 6.4 MILLIMOLAR/KG (STUDY DURATION: 400-600 D), Dose: 0, 1.56 NMOL IN DRINKING WATER 5D/WK FOR 8 WK FOR A TOTAL DOSE OF 0, 6.4 MILLIMOLAR/KG (STUDY DURATION: 400-600 D), Tumor Site: Type of Lesion: OROPHARYNX: PAPILLOMA OR CARCINOMA, ESOPHAGUS: PAPILLOMA OR CARCINOMA, STOMACH: SQUAMOUS CELL CARCINOMA, LIVER: HEPATOCE, Tumor Site: Type of Lesion: OROPHARYNX: PAPILLOMA OR CARCINOMA, ESOPHAGUS: PAPILLOMA OR CARCINOMA, STOMACH: SQUAMOUS CELL CARCINOMA, LIVER: HEPATOCE active; positive | Species: MOUSE, Strain/Sex: NZB/MALE, Route: ORAL, Dose: 0, 1.56 NMOL IN DRINKING WATER 5D/WK FOR 8 WK FOR A TOTAL DOSE OF 0, 5.4 MILLIMOLAR/KG (STUDY DURATION: 400-600 D), Dose: 0, 1.56 NMOL IN DRINKING WATER 5D/WK FOR 8 WK FOR A TOTAL DOSE OF 0, 5.4 MILLIMOLAR/KG (STUDY DURATION: 400-600 D), Tumor Site: Type of Lesion: ESOPHAGUS: PAPILLOMA OR CARCINOMA, STOMACH: SQUAMOUS CELL CARCINOMA, LIVER: HEPATOCELLULAR TUMOR, LUNG: ALVEOLAR ADENOMA, Tumor Site: Type of Lesion: ESOPHAGUS: PAPILLOMA OR CARCINOMA, STOMACH: SQUAMOUS CELL CARCINOMA, LIVER: HEPATOCELLULAR TUMOR, LUNG: ALVEOLAR ADENOMA active; positive | Species: MOUSE, Strain/Sex: NZC/FEMALE, Route: ORAL, Dose: 0, 1.56 NMOL IN DRINKING WATER 5D/WK FOR 8 WK FOR A TOTAL DOSE OF 0, 5.3 MILLIMOLAR/KG (STUDY DURATION: 600-800 D), Dose: 0, 1.56 NMOL IN DRINKING WATER 5D/WK FOR 8 WK FOR A TOTAL DOSE OF 0, 5.3 MILLIMOLAR/KG (STUDY DURATION: 600-800 D), Tumor Site: Type of Lesion: ESOPHAGUS: CARCINOMA OR PAPILLOMA, STOMACH: SQUAMOUS CELL CARCINOMA, LIVER: HEPATOCELLULAR TUMOR, Tumor Site: Type of Lesion: ESOPHAGUS: CARCINOMA OR PAPILLOMA, STOMACH: SQUAMOUS CELL CARCINOMA, LIVER: HEPATOCELLULAR TUMOR active; positive | Species: MOUSE, Strain/Sex: NZC/MALE, Route: ORAL, Dose: 0, 1.56 NMOL IN DRINKING WATER 5D/WK FOR 8 WK FOR A TOTAL DOSE OF 0, 6 MILLIMOLAR/KG (STUDY DURATION: 600-800 D), Dose: 0, 1.56 NMOL IN DRINKING WATER 5D/WK FOR 8 WK FOR A TOTAL DOSE OF 0, 6 MILLIMOLAR/KG (STUDY DURATION: 600-800 D), Tumor Site: Type of Lesion: OROPHARYNX: PAPILLOMA OR CARCINOMA, ESOPHAGUS: PAPILLOMA OR CARCINOMA, STOMACH: SQUAMOUS CELL CARCINOMA, LIVER: HEPATOCE, Tumor Site: Type of Lesion: OROPHARYNX: PAPILLOMA OR CARCINOMA, ESOPHAGUS: PAPILLOMA OR CARCINOMA, STOMACH: SQUAMOUS CELL CARCINOMA, LIVER: HEPATOCE active; positive | Species: MOUSE, Strain/Sex: NZO/FEMALE, Route: ORAL, Dose: 0, 1.56 NMOL IN DRINKING WATER 5D/WK FOR 8 WK FOR A TOTAL DOSE OF 0: 6.3 MILLIMOLAR/KG (STUDY DURATION: 600-800 D), Tumor Site: Type of Lesion: OROPHARYNX: PAPILLOMA OR CARCINOMA, ESOPHAGUS: PAPILLOMA OR CARCINOMA, STOMACH: SQUAMOUS CELL CARCINOMA, LIVER: HEPATOCE, Tumor Site: Type of Lesion: OROPHARYNX: PAPILLOMA OR CARCINOMA, ESOPHAGUS: PAPILLOMA OR CARCINOMA, STOMACH: SQUAMOUS CELL CARCINOMA, LIVER: HEPATOCE active; positive | Species: MOUSE, Strain/Sex: NZO/FEMALE, Route: ORAL, Dose: 0, 50 MG/L IN DRINKING WATER 5 D/WK FOR 32 WK (TOTAL DOSE: 52 MG) (STUDY DURATION: 1.5 YR), Tumor Site: Type of Lesion: OROPHARYNX: SQUAMOUS CELL CARCINOMA, SQUAMOUS CELL ADENOMA, STOMACH: SQUAMOUS CELL CARCINOMA, SQUAMOUS CELL ADENOMA, ESO, Tumor Site: Type of Lesion: OROPHARYNX: SQUAMOUS CELL CARCINOMA, SQUAMOUS CELL ADENOMA, STOMACH: SQUAMOUS CELL CARCINOMA, SQUAMOUS CELL ADENOMA, ESO active; positive | Species: MOUSE, Strain/Sex: NZO/FEMALE, Route: ORAL, Dose: 0, 200 MG/L IN DRINKING WATER 5 D/WK FOR 8 WK (TOTAL DOSE: 52 MG) (STUDY DURATION: 2 YR), Tumor Site: Type of Lesion: OROPHARYNX: SQUAMOUS CELL CARCINOMA, SQUAMOUS CELL ADENOMA, STOMACH: SQUAMOUS CELL CARCINOMA, SQUAMOUS CELL ADENOMA, ESO, Tumor Site: Type of Lesion: OROPHARYNX: SQUAMOUS CELL CARCINOMA, SQUAMOUS CELL ADENOMA, STOMACH: SQUAMOUS CELL CARCINOMA, SQUAMOUS CELL ADENOMA, ESO active; positive | Species: MOUSE, Strain/Sex: NZO/MALE, Route: ORAL, Dose: 0, 1.56 NMOL IN DRINKING WATER 5D/WK FOR 8 WK FOR A TOTAL DOSE OF 0, 6.1 MILLIMOLAR/KG (STUDY DURATION: 600-800 D), Dose: 0, 1.56 NMOL IN DRINKING WATER 5D/WK FOR 8 WK FOR A TOTAL DOSE OF 0, 6.1 MILLIMOLAR/KG (STUDY DURATION: 600-800 D), Tumor Site: Type of Lesion: OROPHARYNX: PAPILLOMA OR CARCINOMA, ESOPHAGUS: PAPILLOMA OR CARCINOMA, STOMACH: SQUAMOUS CELL CARCINOMA, LIVER: HEPATOCE, Tumor Site: Type of Lesion: OROPHARYNX: PAPILLOMA OR CARCINOMA, ESOPHAGUS: PAPILLOMA OR CARCINOMA, STOMACH: SQUAMOUS CELL CARCINOMA, LIVER: HEPATOCE active; positive | Species: MOUSE, Strain/Sex: NZO/MALE, Route: ORAL, Dose: 0, 50 MG/L IN DRINKING WATER 5 D/WK FOR 52 WK (TOTAL DOSE: 52 MG) (STUDY DURATION: 1.5 YR), Tumor Site: Type of Lesion: OROPHARYNX: SQUAMOUS CELL CARCINOMA, SQUAMOUS CELL ADENOMA, STOMACH: SQUAMOUS CELL CARCINOMA, SQUAMOUS CELL ADENOMA, ESO, Tumor Site: Type of Lesion: OROPHARYNX: SQUAMOUS CELL CARCINOMA, SQUAMOUS CELL ADENOMA, STOMACH: SQUAMOUS CELL CARCINOMA, SQUAMOUS CELL ADENOMA, ESO active; positive | Species: MOUSE, Strain/Sex: NZO/MALE, Route: ORAL, Dose: 0, 200 MG/L IN DRINKING WATER 5 D/WK FOR 8 WK (TOTAL DOSE: 52 MG) (STUDY DURATION: 2 YR), Tumor Site: Type of Lesion: OROPHARYNX: SQUAMOUS CELL CARCINOMA, SQUAMOUS CELL ADENOMA, STOMACH: SQUAMOUS CELL CARCINOMA, SQUAMOUS CELL ADENOMA, ESO, Tumor Site: Type of Lesion: OROPHARYNX: SQUAMOUS CELL CARCINOMA, SQUAMOUS CELL ADENOMA, STOMACH: SQUAMOUS CELL CARCINOMA, SQUAMOUS CELL ADENOMA, ESO active; positive | Species: MOUSE, Strain/Sex: NZY/FEMALE, Route: ORAL, Dose: 0, 1.56 NMOL IN DRINKING WATER 5D/WK FOR 8 WK FOR A TOTAL DOSE OF 0, 5.2 MILLIMOLAR/KG (STUDY DURATION: 600-800 D), Dose: 0, 1.56 NMOL IN DRINKING WATER 5D/WK FOR 8 WK FOR A TOTAL DOSE OF 0, 5.2 MILLIMOLAR/KG (STUDY DURATION: 600-800 D), Tumor Site: Type of Lesion: ESOPHAGUS: PAPILLOMA OR CARCINOMA, STOMACH: SQUAMOUS CELL CARCINOMA active; positive | Species: MOUSE, Strain/Sex: NZY/MALE, Route: ORAL, Dose: 0, 1.56 NMOL IN DRINKING WATER 5D/WK FOR 8 WK FOR A TOTAL DOSE OF 0, 5.4 MILLIMOLAR/KG (STUDY DURATION: 600-800 D), Dose: 0, 1.56 NMOL IN DRINKING WATER 5D/WK FOR 8 WK FOR A TOTAL DOSE OF 0, 5.4 MILLIMOLAR/KG (STUDY DURATION: 600-800 D), Tumor Site: Type of Lesion: ESOPHAGUS: PAPILLOMA OR CARCINOMA, STOMACH: SQUAMOUS CELL CARCINOMA, LIVER: HEPATOCELLULAR TUMOR, Tumor Site: Type of Lesion: ESOPHAGUS: PAPILLOMA OR CARCINOMA, STOMACH: SQUAMOUS CELL CARCINOMA, LIVER: HEPATOCELLULAR TUMOR active; positive | Species: RAT, Strain/Sex: F344/FEMALE, Route: ORAL, Dose: 0.9 MM (112 MG/L) IN DRINKING WATER 5/WK FOR 28 WK, Tumor Site: Type of Lesion: LIVER: CARCINOMA, SARCOMA, ESOPHAGUS: PAPILLOMA, CARCINOMA active; positive

CN1CCN(N=O)CC1
active: Species: RAT, Strain/Sex: SPRAGUE-DAWLEY/FEMALE, Route: INHALATION, Dose: 0, 2.4 PPM 14.5 HR/D FOR 74 D OVER 7.5 MONTHS (STUDY DURATION: 350 D), Tumor Site: Type of Lesion: NASAL CAVITY: TUMOR active; positive

From PubChem BioAssay AID1259411 (Chemical Carcinogenesis Research Information System (CCRIS), 2018)
